Test results from ChEMBL document CHEMBL2429754, “Design of novel focal adhesion kinase inhibitors using 3D-QSAR and molecular docking” (Med Chem Res, 2013).

System: 4T1
Assay: Induction of apoptosis in mouse 4T1 cells after 72 hrs using propidium iodide staining byflow cytometry analysis
Format: functional, cell-based
Details: 4T1, 72 h

CNC(=O)c1ccccc1Nc1cc(Nc2ccc(N3CCOCC3)cc2OC)ncc1C(F)(F)F
IC50: 100 nM
